Assay [1] deals with T1, Brd4 bromodomain 1 (BRD4(1)) (Homo sapiens, UniProt O60885).
T1 construct: made in house; host or cells: E. coli BL21(DE3)
Description: Inhibition of tetra-acetylated histone H4 binding to BET bromodomain (HTRF/FRET). As to conditions: His-tagged bromodomain 200 nM, biotinylated tetra-acetylated histone H4 peptide, 2 h room temperature. Here is the method: Proteins were cloned and overexpressed with a N-terminal 6×His tag, then purified by nickel affinity followed by size exclusion chromatography. Briefly, E. coli BL21(DE3) cells were transformed with a recombinant expression vector encoding N-terminally Nickel affinity tagged bromodomains from Brd2, Brd3, Brd4. Cell cultures were incubated at 37° C. with shaking to the appropriate density and induced overnight with IPTG. The supernatant of lysed cells was loaded onto Ni-IDA column for purification, Eluted protein was pooled, concentrated and further purified by size exclusion chromatography. Fractions representing monomeric protein were pooled, concentrated, aliquoted, and frozen at −80° C. for use in subsequent experiments.
Binding of tetra-acetylated histone H4 and BET bromodomains was confirmed by a Homogenous Time Resolved Fluorescence Resonance Energy Transfer (HTRF®) method, N-terminally His-tagged bromodomains (200 nM) and biotinylated tetra-acetylated histone H4 peptide (25-50 nM, Millipore) were incubated in the presence of Europium Cryptate-labeled streptavidin (Cisbio Cat, #610SAKLB) and XL665-labeled monoclonal anti-His antibody (Cisbio Cat.1461HISXLB) in a white 96 well microtiter plate (Greiner). For inhibition assays, serially diluted test compound was added to these reactions in a 0.2% final concentration of DMSO. Duplicate wells were used for each concentration tested. Final buffer concentrations were 30 mM HEPES pH 7.4, 30 mM NaCl, 0.3 mM CHAPS, 20 mM phosphate pH 7.0, 320 mM KF, 0.08% BSA. After a 2 h incubation at room temperature, fluorescence was measured at 665 and 620 nm with a SynergyH4 plate reader (Biotek). The binding inhibitory activity was shown by a decrease in […] relative to 620 nm fluorescence. IC50 values were determined from a dose response curve.

For a further assay, the system named is cMYC. In words: Inhibition of cMYC expression in MV4-11 cells (real-time PCR). It is filed as cell-based, Human. Particulars: 3 h, cMYC mRNA; for pIC50: Homo sapiens, read-out: c-myc activity. Here is the method:
MV4-11 cells (CRL-9591) were plated at a density of 2.5×10^4 cells per well in 96 well U-bottom plates and treated with increasing concentrations of test compound or DMSO (0.1%) in IMDM media containing 10% FBS and penicillin/streptomycin, and incubated for 3 h at 37° C. Triplicate wells were used for each concentration. Cells were pelleted by centrifugation and harvested using the mRNA Catcher PLUS kit according to manufacturer's instructions. The eluted mRNA isolated was then used in a one-step quantitative real-time PCR reaction, using components of the RNA UltraSense™ One-Step Kit (Life Technologies) together with Applied Biosystems TaqMan® primer-probes for cMYC and Cyclophilin, Real-time PCR plates were run on a ViiA™7 real time PCR machine (Applied Biosystems), data was analyzed, normalizing the Ct values for cMYC to an internal control, prior to determining the fold expression of each sample, relative to the control.

A further assay concerns Human AML MV-4-11 cells. In words: Inhibition of cell proliferation in MV4-11 cells (CellTiter Aqueous One). It counts as cell-based. As to conditions: 72 h; for pIC50: Homo sapiens. On the procedure:
MV4-11 cells (CRL-9591) were plated at a density of 5×10^4 cells per well in 96 well flat bottom plates and treated with increasing concentrations of test compound or DMSO (0.1%) in IMDM media containing 10% FBS and penicillin/streptomycin. Triplicate wells were used for each concentration and a well containing only media was used as a control. Plates were incubated at 37° C., 5% CO2 for 72 h before adding 20 μL of the CellTiter Aqueous One Solution (Promega) to each well and incubated at 37° C., 5% CO2 for an additional 3-4 h. The absorbance was read at 490 nm in a spectrophotometer and the percentage of cell titer relative to DMSO-treated cells was calculated after correcting for background by subtracting the blank well's signal. IC50 values were calculated using the GraphPad Prism software.

Another assay concerns hIL-6. Description: Inhibition of hIL-6 mRNA transcription in LPS-stimulated U937 cells. It counts as cell-based, Human. As to conditions: 1 h pretreatment, LPS 3 h; for pIC50: Homo sapiens, U-937, PMA-differentiated U937 cells, read-out: IL-6 activity; for IL-6 activity: PMA-differentiated U937 cells. Here is the method: Human leukemic monocyte lymphoma U937 cells (CRL-1593.2) were plated at a density of 3.2×10^4 cells per well in a 96-well plate in 100 μL RPMI-1640 containing 10% FBS and penicillin/streptomycin, and differentiated into macrophages for 3 days in 60 ng/mL PMA ([…]) at 37° C. in 5% CO2 prior to the addition of compound. The cells were pretreated for 1 h with increasing concentrations of test compound in 0.1% DMSO prior to stimulation with 1 ug/mL lipopolysaccharide from Escherichia coli. Triplicate wells were used for each concentration. The cells were incubated at 37° C., 5% CO2 for 3 h before the cells were harvested. At time of harvest, media was removed and cells were rinsed in 200 μL PBS. Cells were harvested using the mRNA Catcher PLUS kit according to manufacturer's instructions. The eluted mRNA was then used in a one-step quantitative real-time PCR reaction using components of the RNA UltraSense™ One-Step Kit (Life Technologies) together with Applied Biosystems TaqMan® primer-probes for hIL-6 and Cyclophilin. Real-time PCR plates were run on a ViiA™7 real time PCR machine (Applied Biosystems), data was analyzed, normalizing the Ct values for hIL-6 to an internal control, prior to determining the fold expression of each sample, relative to the control.

pIC50: −log10 of the molar value.

As for `Cc1noc(C)c1-c1cnc(Oc2ccccc2)c(NCc2ccccc2)c1` [Example 38, N-benzyl-5-(3,5-dimethylisoxazol-4-yl)-2-phenoxypyridin-3-amine], the pIC50 in assay [1] was at least 6.52; in the assay with cMYC it was 5.52 to 6.52; in the assay on Human AML MV-4-11 cells it was 4.52 to 5.52; with hIL-6, 5.52 to 6.52.

For `CCOc1ncc(-c2c(C)noc2C)cc1NCc1ccccc1` [Example 39, N-benzyl-5-(3,5-dimethylisoxazol-4-yl)-2-ethoxypyridin-3-amine], the pIC50 was at least 6.52 in assay [1], 5.52 to 6.52 with cMYC, 5.52 to 6.52 in the assay with Human AML MV-4-11 cells and 5.52 to 6.52 with hIL-6.

Consider `COc1ncc(-c2c(C)noc2C)cc1OCc1ccccn1` [Example 40, 4-(6-methoxy-5-(pyridin-2-ylmethoxy)pyridin-3-yl)-3,5-dimethylisoxazole], for which the pIC50 in assay [1] is at least 6.52; in the assay with cMYC, 5.52 to 6.52; in the assay with Human AML MV-4-11 cells, 4.52 to 5.52; in the assay on hIL-6, 5.52 to 6.52.

Turning to `COc1ncc(-c2c(C)noc2C)cc1NCc1nccs1` [Example 41, 5-(3,5-dimethylisoxazol-4-yl)-2-methoxy-N-(thiazol-2-ylmethyl)pyridin-3-amine], the pIC50 in assay [1] is at least 6.52; in the assay on cMYC, at least 6.52; in the assay with Human AML MV-4-11 cells it was 5.52 to 6.52; in the assay with hIL-6, 5.52 to 6.52.

In the case of `COc1ncc(-c2c(C)noc2C)cc1NCc1cnoc1` [Example 42, 5-(3,5-dimethylisoxazol-4-yl)-N-(isoxazol-4-ylmethyl)-2-methoxypyridin-3-amine], the pIC50 in assay [1] was at least 6.52; with cMYC, 5.52 to 6.52; in the assay on Human AML MV-4-11 cells it was 4.52 to 5.52; in the assay with hIL-6, 5.52 to 6.52.

`COc1ncc(-c2c(C)noc2C)cc1NCc1ccc2ccccc2c1` [Example 44, 5-(3,5-dimethylisoxazol-4-yl)-2-methoxy-N-(naphthalen-2-ylmethyl)pyridin-3-amine]: the pIC50 in assay [1] was at least 6.52; in the assay with cMYC, 4.52 to 5.52; with Human AML MV-4-11 cells it was 4.52 to 5.52; with hIL-6 it was 4.52 to 5.52.

On to `COc1ncc(-c2c(C)noc2C)cc1NCc1nc2ccccc2o1` [Example 46, N-(benzo[d]oxazol-2-ylmethyl)-5-(3,5-dimethylisoxazol-4-yl)-2-methoxypyridin-3-amine], for which the pIC50 in assay [1] is at least 6.52; in the assay on cMYC, 5.52 to 6.52; in the assay with Human AML MV-4-11 cells, 4.52 to 5.52; in the assay on hIL-6 it was 5.52 to 6.52.

For the molecule `COc1ncc(-c2c(C)noc2C)cc1NCc1ccc2ccccc2n1` [Example 47, 5-(3,5-dimethylisoxazol-4-yl)-2-methoxy-N-(quinolin-2-ylmethyl)pyridin-3-amine], the pIC50 in assay [1] was at least 6.52. For the same molecule, in the assay on cMYC, the c-myc activity entry was “Not Active”. In addition, the “Cell Proliferation activity” value with Human AML MV-4-11 cells is listed as “Not Active”. For the same molecule, the IL-6 activity result with hIL-6 was “Not Active”.

On to `COc1ncc(-c2c(C)noc2C)cc1NCc1ccc(C#N)s1` [Example 50, 5-(((5-(3,5-dimethylisoxazol-4-yl)-2-methoxypyridin-3-yl)amino)methyl)thiophene-2-carbonitrile], for which the figures for the pIC50 (in assay [1]; in the assay on cMYC; with Human AML MV-4-11 cells) were at least 6.52, 5.52 to 6.52 and 4.52 to 5.52, respectively. Besides, the IL-6 activity result with hIL-6 is “Not Active”.

Regarding `Cc1noc(C)c1-c1cnc(Oc2ccccc2)c(NCc2ccccn2)c1` [Example 51, 5-(3,5-dimethylisoxazol-4-yl)-2-phenoxy-N-(pyridin-2-ylmethyl)pyridin-3-amine], the pIC50 is at least 6.52 in assay [1], 5.52 to 6.52 with cMYC, 4.52 to 5.52 with Human AML MV-4-11 cells and 5.52 to 6.52 in the assay on hIL-6.

With `Cc1noc(C)c1-c1cnc(Oc2ccccc2)c(NCc2nccs2)c1` [Example 52, 5-(3,5-dimethylisoxazol-4-yl)-2-phenoxy-N-(thiazol-2-ylmethyl)pyridin-3-amine], the pIC50 in assay [1] was at least 6.52; in the assay on cMYC, 4.52 to 5.52; with Human AML MV-4-11 cells it was 4.52 to 5.52; in the assay with hIL-6, 5.52 to 6.52.

Regarding `COc1ncc(-c2c(C)noc2C)cc1NCc1nc2ccccc2[nH]1` [Example 53, N-((1H-benzo[d]imidazol-2-yl)methyl)-5-(3,5-dimethylisoxazol-4-yl)-2-methoxypyridin-3-amine], the pIC50 was 5.52 to 6.52 in assay [1] and 4.52 to 5.52 with hIL-6. Further, in the assay with cMYC, the c-myc activity result is listed as “Not Active”. For the same molecule, the “Cell Proliferation activity” value with Human AML MV-4-11 cells is listed as “Not Active”.

Turning to `CNc1ncc(-c2c(C)noc2C)cc1NCc1ccc(C#N)s1` [Example 54, 5-(((5-(3,5-dimethylisoxazol-4-yl)-2-(methylamino)pyridin-3-yl)amino)methyl)thiophene-2-carbonitrile], the pIC50 is at least 6.52 in assay [1], 5.52 to 6.52 in the assay with cMYC, 4.52 to 5.52 in the assay on Human AML MV-4-11 cells and 5.52 to 6.52 in the assay with hIL-6.

For `CNc1ncc(-c2c(C)noc2C)cc1NCc1ccccn1` [Example 55, 5-(3,5-dimethylisoxazol-4-yl)-N2-methyl-N3-(pyridin-2-ylmethyl)pyridine-2,3-diamine], the pIC50 in assay [1] is at least 6.52; with cMYC it was 5.52 to 6.52; in the assay on Human AML MV-4-11 cells, 5.52 to 6.52; in the assay on hIL-6, 5.52 to 6.52.

Turning to `CNc1ncc(-c2c(C)noc2C)cc1NCc1nccs1` [Example 56, 5-(3,5-dimethylisoxazol-4-yl)-N2-methyl-N3-(thiazol-2-ylmethyl)pyridine-2,3-diamine], the pIC50 was at least 6.52 in assay [1], 5.52 to 6.52 in the assay on cMYC, 5.52 to 6.52 with Human AML MV-4-11 cells and 5.52 to 6.52 in the assay on hIL-6.

`COc1ncc(-c2c(C)noc2C)cc1NCc1nc2ccccc2s1` [Example 57, N-(benzo[d]thiazol-2-ylmethyl)-5-(3,5-dimethylisoxazol-4-yl)-2-methoxypyridin-3-amine]: the pIC50 in assay [1] was at least 6.52; with cMYC, 5.52 to 6.52; in the assay on Human AML MV-4-11 cells, 4.52 to 5.52; with hIL-6 it was 5.52 to 6.52.

As to `COc1ncc(-c2c(C)noc2C)cc1NCc1cccc2ncccc12` [Example 58, 5-(3,5-dimethylisoxazol-4-yl)-2-methoxy-N-(quinolin-5-ylmethyl)pyridin-3-amine], the pIC50 in assay [1] was at least 6.52; in the assay on cMYC it was 5.52 to 6.52; with Human AML MV-4-11 cells, 5.52 to 6.52; with hIL-6, 5.52 to 6.52.

For the molecule `COc1ncc(-c2c(C)noc2C)cc1Nc1cccnc1C` [Example 59, 5-(3,5-dimethylisoxazol-4-yl)-2-methoxy-N-(2-methylpyridin-3-yl)pyridin-3-amine], the pIC50 in assay [1] is at least 6.52; in the assay on cMYC, 5.52 to 6.52; in the assay on Human AML MV-4-11 cells it was 4.52 to 5.52; in the assay with hIL-6, 5.52 to 6.52.

These data come from US10179125B2, “Substituted pyridines as bromodomain inhibitors” (Zenith Epigenetics Ltd., priority 2014, dated 2019).
